Data reported in the NIST ThermoML archive (doi:10.1021/je201289w).
± gives the expanded uncertainty stated by the source.

Tests used:
[1] = 101.33 kPa, Liquid, Vibrating tube method
[2] = refractive index (Na D-line) (dimensionless); conditions: 101.33 kPa, Liquid, Standard Abbe refractometry

CCCCn1cc[n+](C)c1.O=S(=O)([N-]S(=O)(=O)C(F)(F)C(F)(F)C(F)(F)C(F)(F)F)C(F)(F)C(F)(F)C(F)(F)C(F)(F)F
Conditions	mass density, [1] [kg/m3]	refractive index, [2]
283.15 K	1629.5 ± 3.1	1.39249 ± 0.00064
288.15 K	1623.4 ± 3.1	1.39104 ± 0.00064
293.15 K	1617.3 ± 3.1	1.38955 ± 0.00064
298.15 K	1611.1 ± 3.1	1.38807 ± 0.00064
303.15 K	1605 ± 3	1.38662 ± 0.00064
308.15 K	1599.1 ± 3	1.38516 ± 0.00064
313.15 K	1593.2 ± 3	1.38367 ± 0.00064
318.15 K	1587.4 ± 3	1.38222 ± 0.00064
323.15 K	1581.6 ± 2.9	1.38078 ± 0.00064
328.15 K	1575.8 ± 2.9	1.3793 ± 0.00064
333.15 K	1570 ± 2.9	1.37783 ± 0.00064
338.15 K	1564.2 ± 2.9	1.37638 ± 0.00063
343.15 K	1558.4 ± 2.9	1.37496 ± 0.00063
348.15 K	1552.6 ± 2.8	1.3735 ± 0.00064
353.15 K	1546.8 ± 2.8	1.37206 ± 0.00063

CCC[N+]1(C)CCCC1.O=S(=O)([N-]S(=O)(=O)C(F)(F)F)C(F)(F)F
Conditions	mass density, [1] [kg/m3]	refractive index, [2]
283.15 K	1441 ± 2.4	1.42474 ± 0.00063
288.15 K	1436.4 ± 2.4	1.42336 ± 0.00063
293.15 K	1431.9 ± 2.4	1.42201 ± 0.00063
298.15 K	1427.4 ± 2.4	1.42064 ± 0.00063
303.15 K	1422.8 ± 2.4	1.41925 ± 0.00063
308.15 K	1418.3 ± 2.4	1.41792 ± 0.00063
313.15 K	1413.8 ± 2.3	1.41656 ± 0.00063
318.15 K	1409.3 ± 2.3	1.41519 ± 0.00063
323.15 K	1404.8 ± 2.3	1.41389 ± 0.00063
328.15 K	1400.4 ± 2.3	1.41252 ± 0.00063
333.15 K	1396 ± 2.3	1.41119 ± 0.00063
338.15 K	1391.6 ± 2.3	1.40986 ± 0.00063
343.15 K	1387.2 ± 2.2	1.40853 ± 0.00063
348.15 K	1382.9 ± 2.2	1.40718 ± 0.00062
353.15 K	1378.6 ± 2.2	1.40589 ± 0.00062

CCn1cc[n+](C)c1.O=S(=O)([N-]S(=O)(=O)C(F)(F)F)C(F)(F)F
Conditions	mass density, [1] [kg/m3]	refractive index, [2]
283.15 K	1533.8 ± 2.8	1.42738 ± 0.00063
288.15 K	1528.7 ± 2.7	1.42594 ± 0.00063
293.15 K	1523.6 ± 2.7	1.42451 ± 0.00063
298.15 K	1518.5 ± 2.7	1.42309 ± 0.00063
303.15 K	1513.4 ± 2.7	1.42166 ± 0.00063
308.15 K	1508.4 ± 2.7	1.42022 ± 0.00063
313.15 K	1503.3 ± 2.7	1.41881 ± 0.00063
318.15 K	1498.3 ± 2.6	1.4174 ± 0.00063
323.15 K	1493.3 ± 2.6	1.41597 ± 0.00063
328.15 K	1488.4 ± 2.6	1.41458 ± 0.00063
333.15 K	1483.4 ± 2.6	1.41319 ± 0.00063
338.15 K	1478.5 ± 2.6	1.41177 ± 0.00063
343.15 K	1473.6 ± 2.5	1.41037 ± 0.00063
348.15 K	1468.7 ± 2.5	1.40902 ± 0.00063
353.15 K	1463.9 ± 2.5	1.4076 ± 0.00063

CCn1cc[n+](C)c1.N#CN=C=[N-] [1-ethyl-3-methylimidazolium dicyanamide]
Conditions	mass density, [1] [kg/m3]	refractive index, [2]
283.15 K	1111.4 ± 1.4	1.51774 ± 0.00066
288.15 K	1107.9 ± 1.4	1.51605 ± 0.00066
293.15 K	1104.6 ± 1.4	1.51441 ± 0.00065
298.15 K	1101.2 ± 1.4	1.51278 ± 0.00065
303.15 K	1097.9 ± 1.3	1.51121 ± 0.00065
308.15 K	1094.6 ± 1.3	1.50963 ± 0.00065
313.15 K	1091.3 ± 1.3	1.50808 ± 0.00064
318.15 K	1088 ± 1.3	1.50655 ± 0.00064
323.15 K	1084.8 ± 1.3	1.50502 ± 0.00064
328.15 K	1081.5 ± 1.3	1.50351 ± 0.00065
333.15 K	1078.3 ± 1.3	1.50191 ± 0.00065
338.15 K	1075.2 ± 1.3	1.5003 ± 0.00065
343.15 K	1072 ± 1.3	1.49865 ± 0.00065
348.15 K	1068.9 ± 1.3	1.49708 ± 0.00064
353.15 K	1065.8 ± 1.3	1.49557 ± 0.00064

CCOS(=O)(=O)[O-].CCn1cc[n+](C)c1 [1-ethyl-3-methylimidazolium ethyl sulfate]
Conditions	mass density, [1] [kg/m3]	refractive index, [2]
283.15 K	1247.7 ± 1.8	1.48317 ± 0.00062
288.15 K	1244.3 ± 1.8	1.48185 ± 0.00062
293.15 K	1241 ± 1.8	1.48053 ± 0.00062
298.15 K	1237.6 ± 1.8	1.47921 ± 0.00062
303.15 K	1234.3 ± 1.7	1.47789 ± 0.00062
308.15 K	1231 ± 1.7	1.47657 ± 0.00062
313.15 K	1227.6 ± 1.7	1.47528 ± 0.00062
318.15 K	1224.3 ± 1.7	1.47395 ± 0.00063
323.15 K	1220.9 ± 1.7	1.47262 ± 0.00062
328.15 K	1217.6 ± 1.7	1.4713 ± 0.00063
333.15 K	1214.2 ± 1.7	1.46994 ± 0.00063
338.15 K	1210.9 ± 1.7	1.4685 ± 0.00063
343.15 K	1207.6 ± 1.7	1.46723 ± 0.00062
348.15 K	1204.2 ± 1.7	1.46596 ± 0.00062
353.15 K	1200.9 ± 1.6	1.46468 ± 0.00062

CCn1cc[n+](C)c1.O=S(=O)([O-])O [1-ethyl-3-methylimidazolium hydrogen sulfate]
Conditions	mass density, [1] [kg/m3]	refractive index, [2]
283.15 K	1376.7 ± 2.2	1.50042 ± 0.00061
288.15 K	1373.6 ± 2.2	1.49931 ± 0.00061
293.15 K	1370.5 ± 2.2	1.4982 ± 0.00061
298.15 K	1367.4 ± 2.2	1.4971 ± 0.00061
303.15 K	1364.3 ± 2.2	1.49601 ± 0.00061
308.15 K	1361.1 ± 2.2	1.49489 ± 0.00061
313.15 K	1357.8 ± 2.1	1.49379 ± 0.00061
318.15 K	1354.6 ± 2.1	1.49269 ± 0.00061
323.15 K	1351.5 ± 2.1	1.49161 ± 0.00061
328.15 K	1348.5 ± 2.1	1.49052 ± 0.00061
333.15 K	1345.4 ± 2.1	1.48944 ± 0.00061
338.15 K	1342.4 ± 2.1	1.48836 ± 0.00061
343.15 K	1339.4 ± 2.1	1.48727 ± 0.0006
348.15 K	1336.4 ± 2.1	1.48623 ± 0.00061
353.15 K	1333.4 ± 2.1	1.48512 ± 0.00061

CCn1cc[n+](C)c1.CS(=O)(=O)[O-] [1-ethyl-3-methylimidazolium methanesulfonate]
Conditions	mass density, [1] [kg/m3]	refractive index, [2]
283.15 K	1252 ± 1.8	1.49994 ± 0.00063
288.15 K	1248.4 ± 1.8	1.49855 ± 0.00063
293.15 K	1245 ± 1.8	1.49718 ± 0.00063
298.15 K	1241.6 ± 1.8	1.49582 ± 0.00063
303.15 K	1238.2 ± 1.8	1.49444 ± 0.00063
308.15 K	1234.9 ± 1.8	1.49308 ± 0.00063
313.15 K	1231.5 ± 1.7	1.49172 ± 0.00063
318.15 K	1228.2 ± 1.7	1.49039 ± 0.00063
323.15 K	1224.8 ± 1.7	1.48905 ± 0.00063
328.15 K	1221.5 ± 1.7	1.48768 ± 0.00063
333.15 K	1218.1 ± 1.7	1.48638 ± 0.00063
338.15 K	1214.8 ± 1.7	1.48498 ± 0.00063
343.15 K	1211.5 ± 1.7	1.48367 ± 0.00063
348.15 K	1208.1 ± 1.7	1.4823 ± 0.00063
353.15 K	1204.8 ± 1.7	1.48095 ± 0.00063

CCn1cc[n+](C)c1.N#C[B-](C#N)(C#N)C#N [1-ethyl-3-methylimidazolium tetracyanoborate]
Conditions	mass density, [1] [kg/m3]	refractive index, [2]
283.15 K	1041 ± 1.2	1.45284 ± 0.00067
288.15 K	1037 ± 1.2	1.45108 ± 0.00066
293.15 K	1032.9 ± 1.2	1.44936 ± 0.00066
298.15 K	1028.9 ± 1.2	1.44763 ± 0.00066
303.15 K	1024.9 ± 1.1	1.44592 ± 0.00066
308.15 K	1020.9 ± 1.1	1.44421 ± 0.00066
313.15 K	1016.9 ± 1.1	1.44252 ± 0.00066
318.15 K	1013 ± 1.1	1.44081 ± 0.00066
323.15 K	1009.1 ± 1.1	1.43913 ± 0.00066
328.15 K	1005.2 ± 1.1	1.43745 ± 0.00066
333.15 K	1001.3 ± 1.1	1.43578 ± 0.00066
338.15 K	997.4 ± 1.1	1.43412 ± 0.00065
343.15 K	993.6 ± 1.1	1.43248 ± 0.00065
348.15 K	989.8 ± 1.1	1.43085 ± 0.00065
353.15 K	986 ± 1.1	1.42922 ± 0.00065

CCn1cc[n+](C)c1.F[B-](F)(F)F [1-ethyl-3-methylimidazolium tetrafluoroborate]
Conditions	mass density, [1] [kg/m3]	refractive index, [2]
283.15 K	1292 ± 1.9	1.41546 ± 0.00062
288.15 K	1288.2 ± 1.9	1.41423 ± 0.00062
293.15 K	1284.3 ± 1.9	1.413 ± 0.00062
298.15 K	1280.5 ± 1.9	1.41177 ± 0.00062
303.15 K	1276.7 ± 1.9	1.41055 ± 0.00062
308.15 K	1272.9 ± 1.9	1.40934 ± 0.00062
313.15 K	1269.1 ± 1.9	1.4081 ± 0.00062
318.15 K	1265.3 ± 1.8	1.4069 ± 0.00061
323.15 K	1261.6 ± 1.8	1.4057 ± 0.00061
328.15 K	1257.8 ± 1.8	1.40452 ± 0.00062
333.15 K	1254 ± 1.8	1.40327 ± 0.00061
338.15 K	1250.2 ± 1.8	1.40211 ± 0.00061
343.15 K	1246.5 ± 1.8	1.40093 ± 0.00061
348.15 K	1242.8 ± 1.8	1.39975 ± 0.00061
353.15 K	1239.2 ± 1.8	1.39858 ± 0.00061

CCn1cc[n+](C)c1.N#C[S-] [1-ethyl-3-methylimidazolium thiocyanate]
Conditions	mass density, [1] [kg/m3]	refractive index, [2]
283.15 K	1124.7 ± 1.4	1.556 ± 0.00064
288.15 K	1121.7 ± 1.4	1.5545 ± 0.00064
293.15 K	1118.6 ± 1.4	1.55299 ± 0.00064
298.15 K	1115.5 ± 1.4	1.55149 ± 0.00064
303.15 K	1112.4 ± 1.4	1.54999 ± 0.00064
308.15 K	1109.4 ± 1.4	1.5485 ± 0.00064
313.15 K	1106.3 ± 1.4	1.54702 ± 0.00064
318.15 K	1103.3 ± 1.4	1.54557 ± 0.00064
323.15 K	1100.3 ± 1.4	1.54409 ± 0.00064
328.15 K	1097.3 ± 1.3	1.54263 ± 0.00064
333.15 K	1094.4 ± 1.3	1.54119 ± 0.00064
338.15 K	1091.4 ± 1.3	1.53973 ± 0.00063
343.15 K	1088.4 ± 1.3	1.53831 ± 0.00063
348.15 K	1085.5 ± 1.3	1.53687 ± 0.00063
353.15 K	1082.6 ± 1.3	1.53545 ± 0.00063
